Test results published in patent US20250277066A1, “Substituted Pyridine-2,6-Bis(Phenylenephenolate) Complexes with Enhanced Solubility that are Useful as Catalyst Components for Olefin Polymerization” (ExxonMobil Chemical Patents Inc., priority 2022, published 2025).

Experiment: Solubility of complexes in isohexane (Method 1 or Method 2)
Format: physicochemical
Details: ambient temperature (20° C.-25° C.), mass includes residual solvent
Protocol: Solubility studies for all other complexes were performed using material as synthesized. […] Solvents used were sparged with nitrogen (30-60 minutes) and dried over 3 Å mole sieves. Unless stated otherwise all measurements were performed at ambient temperature (20° C.-25° C.).
General procedure: Solubility was determined using the following Method 1 or Method 2. For calculations, a value of 0.672 g/mL was used for the density of isohexane.
Method 1: A tared vial was loaded with a small amount of the complex (actual mass recorded, including any residual solvent as noted above, typically 5-30 mg). Then a small stir bar (8 mm) was added. Solvent was then added and the mixture was stirred rapidly (1000 rpm). […] This process was repeated until either a clear solution was obtained (no visible solids or murkiness) or the vial was full. As the mixture approached homogeneity (i.e., few remaining solids observed) the volume of the solvent additions was kept small (<1 mL) to minimize excess beyond the solvent required to achieve homogeneity. The stir bar was then removed and the mass of the mixture was measured. If a clear solution had formed then the solubility of the complex was calculated as a single value, based on the mass of complex and the amount of solvent added to achieve a homogeneous solution. If the mixture remained heterogeneous (visible solids or murky), then the value reported is given as being “less than” the calculated value.
Method 2: A measured amount of complex (actual mass recorded, including any residual solvent as noted above) was added to a tared vial, followed by a stir bar. Dry isohexanes were added in small portions and the resulting mixture was stirred after each portion of isohexanes. If a clear solution had formed then the solubility was reported as a range, the lower bound of solubility calculated using the total solvent added to achieve a homogenous solution and the upper bound of solubility calculated using the total solvent measured prior to achieving a homogenous solution. If the mixture remained heterogeneous (visible solids or murky), the upper bound of solubility was calculated using the total solvent added. Formula used to calculate solubility are listed below. Solvent present in the complex is included in the mass and formula weight of the complexes.

SMILES | Solubility (s) in Isohexane (wt %) | Solubility (s) in Isohexane [mM]
CC(C)(C)c1cc2c(c(C34CC5CC(CC(C5)C3)C4)c1)[O][Zr-]1([CH3])([CH3])[O]c3c(cc(C(C)(C)C)cc3C34CC5CC(CC(C5)C3)C4)-c3ccccc3-c3cccc([n+]31)-c1ccccc1-2 [Complex 2] | 0.081 | 
Cc1cc2[n+]3c(c1)-c1ccccc1-c1cc(C(C)(C)C)cc(C45CC6CC(CC(C6)C4)C5)c1[O][Zr-]3([CH3])([CH3])[O]c1c(cc(C(C)(C)C)cc1C13CC4CC(CC(C4)C1)C3)-c1ccccc1-2 [Complex 3] | <0.5 | <3.2
